SMILES | melting point [°C]
CN(C)c1ccc(C2(c3ccc(N(C)C)cc3)NNC(=O)c3cc(N(C)C)ccc32)cc1 | 265 to 270
COc1ccc(C=CC(=O)c2c(OC)cc(OC)cc2OC2OC(CO)C(O)C(O)C2NC(C)=O)cc1 (centres undefined) | 197 to 200
CC(C)(C)C(=O)OCCn1nc(-c2cc(C(C)(C)C)c(O)c(C(C)(C)C)c2)c2cccnc21 | 85 to 87
CN1C(=S)NC(=O)C1=Cc1cc(C(C)(C)C)c(O)c(C(C)(C)C)c1 | 242 to 244
COc1ccc(N)cc1C(=O)O | 163 to 166
CC(=O)c1cccc(NC(=O)C=C(C)Cl)c1 | 152
COc1ccc2c(ccc3c4ccc(OC)cc4c(=O)n(-c4ccc(O[Si](C)(C)C(C)(C)C)cc4)c23)c1 | 211 to 213
COc1ccc(Cc2cnc(N)nc2N)c(OC)c1O | 246 to 248
CCC1CC(=Cc2ccc(N(CC)CC)cc2)C(=O)C(=Cc2ccc(N(CC)CC)cc2)C1 (centres undefined) | 141
CCCc1nc(C(C)(O)CC)c(C#N)n1C(c1ccccc1)(c1ccccc1)c1ccccc1 (centres undefined) | > 120
COC(=O)c1cc2cccnc2cc1C(=O)OC | 101 to 102
CN1CCC(O)(c2cc(F)cc(F)c2)C1 (centres undefined) | 150
CCN(CC)C(=O)OCC1CN(C(=O)c2cc(OC)c(OC)c(OC)c2)CCN1C(=S)c1cc(OC)c(OC)c(OC)c1 (centres undefined) | 175
CC(C)Oc1ccccc1-c1ccoc1C(=O)NNC(=O)c1ccc(O)c(C#N)c1 | 128 to 130
CCc1cc2c(s1)-n1c(C3CCCCC3)nnc1C(N)N=C2c1ccccc1Cl (centres undefined) | 175 to 176
C1CN(c2nc(NC3CC3)nc(C3CC3)n2)CCS1 | 133 to 134
CC(C=O)Oc1ccc(OCc2ccccc2)cc1 (centres undefined) | 50 to 51
CCOC(=O)c1cc(OC)c2c(OC(C)C)ccc(Br)c2c1 | 62
CCOC1=NS(=O)(=O)C(C#N)=C1OCC | 147 to 148
CCCCCCCCCCOc1ccc(-c2ccc(C(=O)O)cc2)cc1 | 246 to 250
COc1ccc(S(=O)(=O)N(Cc2ccccc2)c2c(C(=O)O)cnc3c2cnn3-c2ccccc2)cc1 | 108 to 110
CC(C)NC(=O)Nc1cccc2c1C(=O)C1(O)c3ccc(C(C)C)cc3OC21O (centres undefined) | 81 to 85
O=[N+]([O-])c1[nH]c(-c2c(Cl)cc(C(F)(F)F)cc2Cl)nc1C(F)(F)F | 244 to 252
C=CCOC(=O)COc1cccc(NC(=O)NCC(=O)N(CC(=O)OC(C)(C)C)c2ccccc2C(=O)c2ccccc2)c1 | 134 to 136
CC(C)(CCCCCC(=O)CCCCCC(C)(C)C(=O)O)C(=O)O | 74.5 to 76

SMILES | melting point [°C]
O=C(OCCCCc1ccc2[nH]c(=O)oc2c1)C(F)(F)F | 100 to 103
CC(C)(C)Cc1ccc(C#N)c(=O)[nH]1 | 211 to 212
CC(COc1ccc(C(=O)O)c(O)c1)C[Si](C)(O[Si](C)(C)C)O[Si](C)(C)C (centres undefined) | 117 to 118
CCOC(=O)C(=CNc1ccc(OC)c(F)c1)C(=O)OCC | 63
CCOC(=O)c1cnccc1CSc1nc(C)c(CC(=O)O)s1 | 139 to 141
COc1ccc(-c2ccc(C(=O)NCCOc3ccc(CC(Oc4ccc(C(C)C)cc4)C(=O)O)cc3)cn2)cc1 (centres undefined) | 166 to 167
Cc1cc(C)c2ccc(S(=O)(=O)O)nc2n1 | > 280
CCOc1cccc(NCCSCc2[nH]cnc2C)n1 | 172
CNc1c(C)c(C)c(OC(C)=O)c(C)c1N | 113 to 116
O=C1NC(=O)C2(C=Cc3c2csc3Cl)N1 (centres undefined) | 224 to 225
CCCCc1nc2cccc(CC(=O)O)c2n1Cc1ccc(-c2ccccc2-c2nnn[nH]2)cc1 | 170 to 171
Cn1c(=O)n(CCO)n(CCO)c1=O | 126 to 127
O=C(O)c1nc(-c2ccccc2)n2c1CN=C(c1ccccc1F)c1cc(Cl)ccc1-2 | 267 to 269
COc1cc(-c2nc(-c3ccc(N(C)C)cc3)c(C)o2)ccc1O | 170 to 173
CCOC(=O)/C=C/c1cn(Cc2ccc(OCc3ccccc3)cc2)nc1-c1ccc(F)cc1 | 113 to 114
CCOC(=O)C=Cc1ccc(OCc2nc(-c3ccccc3)oc2C)cc1 | 145 to 146
N#Cc1ccc(N2C(=O)[C@@H]3[C@H](O)CCN3C2=S)c2ccccc12 | 215 to 216
Cc1ccc(S(=O)(=O)NC(=O)N2C(=O)CN2C(c2ccccc2)c2ccccc2)cc1 | 115 to 123
COc1cc2c(c3c1OC(C)(C)C3)C(c1ccc(=O)n(-c3cccc(-c4ccccn4)n3)c1)=NC(C)(C)C2 | 231 to 234
CCn1c(C(=O)N(C)Cc2cc(C(F)(F)F)cc(C(F)(F)F)c2)c(-c2ccccc2)c2ccccc2c1=O | 105 to 106
CCOC(=O)C(=Cc1cccn2cc(C(C)C)nc12)N=[N+]=[N-] | 66 to 68
O=C(O)C1=Cc2cc(C(=O)c3ccc(O)cc3)ccc2OC1C(F)(F)F (centres undefined) | 234 to 240
CCCc1nc2c(N)nc3ccccc3c2n1OCc1ccccc1 | 164 to 166
CCCNC(=O)c1ccc(-c2ccc3nnn(Cc4ccc5ncccc5c4)c3n2)cc1Cl | 128 to 130
O=C(O)c1cccc(C(=O)NC(Cc2c[nH]c3ccccc23)C(=O)CCc2cc(C(F)(F)F)cc(C(F)(F)F)c2)c1 (centres undefined) | 113 to 116

The remaining lines, values ahead:

melting point [°C] | SMILES
127 to 128 | CS(=O)(=O)c1ccc(-c2oc(C3CCCCC3)nc2-c2ccc(F)cc2)cc1
127 | OC(Cn1cncn1)(CC(Cl)(Cl)Cl)c1ccc(F)cc1 (centres undefined)
249 to 251 | COc1cc2nc(N3CCc4c(cccc4C(=N)N4CCOCC4)C3)[nH]c(=O)c2cc1OC
185 to 187 | N#Cc1cc(-c2ccc(Cl)cc2)cnc1Cl
221 to 223 | O=C(c1cnc(Cl)nc1C(F)(F)F)N1Cc2cccn2Cc2ccccc21
238 | Cc1nc(N)nc(N)c1-c1ccc(F)cc1Cl
197 to 198 | CCOC(=O)C1=Cc2cccc(S(N)(=O)=O)c2OCC1
101 to 102 | Cc1ccc(OC(=O)N2CCCC2=O)cc1
164 to 167 | CN1C(=O)CN2CCNC2(c2ccccc2)c2cc(Cl)ccc21 (centres undefined)
97 to 98 | COc1ccc2c(c1)C(C(=O)N(Cc1ccc3c(c1)OCO3)c1ccc(C(C)C)cc1)CCC2 (centres undefined)
210 to 212 | O=C1C2C3C=CC(C4CC34)C2C(=O)N1c1ccc([N+](=O)[O-])cc1 (centres undefined)
89 to 90 | CCOC(=O)c1cccc(-c2ccc3c(c2)C(=O)CCC3)c1
252 to 253 | O=C(O)C1Cc2c(n(Cc3ccccc3)c3ccccc23)CN1 (centres undefined)
142 | Clc1nc(N2CCOCC2)c2nnn(C3CCOCC3)c2n1
172 to 174 | COc1ccc(-c2cc3cc(Cl)cc(Cl)c3o2)cc1
95 | CCOC(CCCN1CCC(NC(=O)c2ccccc2)CC1)OCC
89.5 to 90.3 | CCOC(=O)C(NC(=O)c1ccc(Cl)cc1)C(=O)OCC
174 to 176 | O=C(O)Cc1ccc2c(c1)sc1ccccc12
170 | CC1(C)OC(C=Cc2ccc(C#N)cc2)=CC1=O
191 to 193 | O=C1CN(c2ccc(I)cc2)S(=O)(=O)N1
247 to 249 | O=C1OC(=O)C(c2ccc(C(=O)O)cc2)=C1c1ccccc1
190 to 192 | COc1ccc2nc(COc3ccc(F)c(C(N)=O)c3F)sc2c1
125 | CCOC(=O)c1cc(OCc2ccccc2)c2ccc(C#N)cc2c1
170 | O=c1[nH]c(-c2ccccc2F)nc2c1CCCC2
82 to 84 | COC(=O)CCCCNC(=O)c1sc2ccc(OC)cc2c1OC(C)C

melting point [°C] | SMILES
157 | CCCn1c(-c2ccc(O)cc2)cnc1SC
245 to 246 | Cc1cc(-c2nc3cccnn3c2-c2ccnc(NC(=O)c3ccc(N(C)C)cc3)c2)ccc1F
130 to 131 | COC[C@H]1CCCN1C(=O)c1cc(-c2ccccc2)c(=O)n2c1-c1ccccc1C2
263 to 266 | O=C1NC(=S)SC1=Cc1ccc2c(c1)N(CCc1ccc(F)c(F)c1)C(=O)CO2
203 | CCOc1ccc2[nH]c(=O)n(C3CCCCC3)c2c1
272 | Cc1ccc(C)c(S(=O)(=O)n2ccc3c4c(N)nc(N)nc4ccc32)c1
128 to 130 | CC(=O)NC1CCC(=O)c2ccccc21 (centres undefined)
86 to 92 | O=C(O)CCCCc1c[nH]c2ccc(F)cc12
210 to 212 | CC(C)n1nc(-c2c(NCc3ccccn3)nc(N)nc2-c2ccc(F)cc2)ccc1=O
215 | CNC(=S)N1CCc2[nH]cnc2C1c1cccs1 (centres undefined)
105 to 107 | CCOC(=O)c1nccn1Cc1ccc(Cl)cc1[N+](=O)[O-]
116 | CC(CCN1CCN(c2ccc(F)cc2)CC1)N1c2cccc3cccc(c23)S1(=O)=O (centres undefined)
135 to 138 | COc1ccc(N(CCN2CCC(C(=O)c3ccc(F)cc3)CC2)C(=O)c2ccc(N)cc2)c(OC)c1
246 | O=C1NC(=O)C2(N1)C(=O)N(Cc1ccc(Cl)c(Cl)c1)c1c(F)cccc12 (single isomer, unassigned; (+))
120 to 121 | Cc1ccccc1-n1ccc(=O)c(-c2ccnn2-c2ccccc2)n1
102 to 125 | CC(C)N1CCOC(CN2C(=O)C3(COc4cc5c(cc43)OCCO5)c3ccccc32)C1 (centres undefined)
161 | Nc1cnc2c(F)c(F)ccc2c1
133 to 135 | CC(=O)c1cc(Cl)cc(Oc2ncccc2C(=O)NC[C@H]2CC[C@H](C(C)(C)O)CC2)c1
144 | O=C(NCCN1CCC(O)(c2ccc(Cl)cc2)CC1)c1ccc(F)cc1[N+](=O)[O-]
78 to 80 | Clc1cccc(Oc2ccc(OCc3ccc(Br)s3)cc2)n1
128 | N#CC1(N)CCC2Cc3ccccc3CC2C1 (centres undefined)
191 to 193 | O=C(O)CCCCC(=O)c1ccc2cc(O)ccc2c1
186 to 188 | COC(=O)c1cccc2nc(SCCN3CCN(CCNC(=O)Nc4c(C(C)C)cccc4C(C)C)CC3)oc12
96 to 97 | S=c1sc(=Nc2ccc(Cl)cc2)n2n1CCCC2
